The source of these data is patent US20130143969A1 (THE OHIO STATE UNIVERSITY, priority 2010, published 2013).

Data set [1] deals with p15^INK4B promoter region. Put plainly: DNA methylation analysis of the p15INK4B promoter region (LC-MS/MS). It counts as cell-based. The conditions noted are these: MV4-11 cells, decitabine 2.5 μM, 72 hours. The method, then: Genomic DNA isolated from MV4-11 cells was treated with bisulfite using the Epi methylation Kit (Qiagen, Minneapolis, Minn.) according to the instruction from the manufacturer and followed by PCR amplification as follows. The sequences of p15^INK4B primers were: forward 5′-GGGAGGGTAATGAAGTTGAGTTTA-3′ (SEQ ID NO. 1), and reverse 5′-ACCCTAAAACCCCAACTACCTAAAT-3′ (SEQ ID NO. 2). PCR amplifications were performed as follows: 95° C. for 5.5 min, 55° C. for 30s for 5 cycles, and 52° C. for 30 s for 38 cycles, 72° C. for 30s for 38 cycles, with a final step at 72° C. for 1 min. PCRs were carried out in a 100 μl volume containing 10 μl of buffer (10×), 2 μL of each primer (10 μM), 2 μL of (10 mM) dNTPs, 2 U of Platinum Taq DNA polymerase (Invitrogen, Carlsbad, Calif.), 70.6 μL ddH2O and 10 μL of bisulfite treated DNA in a GeneAmp 9700 thermal cycler (Perkin-Elmer, Norwalk, Conn.). PCR products were purified using QIAquick columns and eluted in water. A 500 ng aliquot of the PCR product was incubated with 25 UM. […] Fully methylated PCR products were purified using the QIAquick PCR Purification kit (Qiagen, Minneapolis, Minn.), according to the manufacturer's instructions and 200 ng of the purified DNA was hydrolyzed and the concentrations of 5mdC and 2dC in the hydrolysate were measured by LC-MS/MS using the conditions as described previously.

For another data set, the system named is MV4-11 cells. Put plainly: Cell cycle distribution by flow cytometry. It counts as cell-based. The conditions noted are these: 2.5 μM decitabine. The method, then:
(§1) Cell Cycle and Apoptosis Analysis: MV4-11, ML-1, HL-60 and K562 leukemia cell lines were cultured in RPMI medium (VWR International, Inc., West Chester, Pa.) supplemented with 10% fetal bovine serum (Invitrogen, Carlsbad, Calif.) and 1% (v/v) penicillin/streptomycin (Invitrogen Life Technologies; Carlsbad, Calif.) antibiotic solution at 37° C. in an incubator under 5% CO2 atmosphere. For the ex-vivo studies, mononuclear cells obtained from bone marrow (BM) of patient with AML were prepared by Ficoll-Hypaque (Nygaard) gradient centrifugation and cultured with serum-free expansion medium (SFEM) (StemCell technologies, Vancouver, BC) supplemented with GM-CSF (50 ng/ml), IL-3 (20 ng/ml), IL-6 (20 ng/ml) and SCF ([…]). […] The cell cycle and apoptosis of MV4-11 cells was analyzed on a BD FACS Calibur (Beckman Coulter, Fullerton, Calif.) according to the standard protocol provided by the manufacturer.

In the next data set the test system is p15^INK4B. As to the kind of experiment: Quantitative RT-PCR of p15INK4B mRNA in leukemia cells. It counts as cell-based. The settings on record: MV4-11 cells, decitabine 2.5 μM, 72 hours. The method, then: as §1
Quantitative RT-PCR was used to quantify the mRNA levels of DNMT1, DNMT3a, DNMT3b, p15INK4B and p21. Total RNA was extracted with Trizol reagent (Invitrogen, Carlsbad, Calif.) and reverse transcribed by reverse transcriptase (Invitrogen). Quantitative real-time PCR reactions were performed in triplicate using Taqman gene expression assay (Applied Biosystems) with an ABI prism 7700 detector (Applied Biosystems). The target gene values were normalized to the values of internal control GAPDH or 18 S, and expressed as relative percent change (100×2^(˜ΔΔCt)) over non-treated samples.

The next data set can be described thus: in vivo. The conditions noted are these: for concentration at 10 min / concentration at 20 min / concentration at 30 min / concentration at 45 min / concentration at 60 min / concentration at 90 min / concentration at 120 min / concentration at 240 min / concentration at 480 min: CD2F1, mouse, in vivo; for AUC as % curcumin (relative percentage): oral 1.8 g/kg curcumin gel; for AUC: oral 1.8 g/kg curcumin gel in 66.7% PEG 600 + 33.3% Cremophor EL. From the text:
Extracts of bio-matrices were subjected to HPLC mass spectrometric analysis.

The mark [2] stands for this setting: mouse, oral 1.8 g/kg curcumin in 66.7% PEG 600 + 33.3% Cremophor EL, 1440 min.

As for `Nc1ncn([C@H]2C[C@H](O)[C@@H](CO)O2)c(=O)n1` [decitabine, Decitabine], the “decrease of p15INK4B promoter methylation level” value in data set [1] is about 25%. Besides, in the data set on MV4-11 cells, the “cell population in G0/G1 phase” value is reported as 49.4%, the “cell population in G2/M phase” value was found to be 11.7%, the “cell population in S phase” value amounted to 26.2% and the “cell population in SubG1 phase” value is 13.2%. Also, in the data set with p15^INK4B, the “increase of p15INK4B expression level” value is recorded as about 4 fold.
As to `COc1cc(/C=C/C(O)=C/C(=O)/C=C/c2ccc(O)cc2)ccc1O` [DMO, desmethoxycurcumin], in the data set “in vivo”, the concentration at 10 min was found to be 0.148 µg/mL, the concentration at 20 min was 0.224 µg/mL, the concentration at 30 min came to 0.108 µg/mL and the concentration at 45 min was determined as 0.118 µg/mL. In addition, in “in vivo”, the concentration at 60 min was 0.0765 µg/mL, the concentration at 90 min was determined as 0.0291 µg/mL, the concentration at 120 min came out at 0.0395 µg/mL and the concentration at 240 min is 0.0404 µg/mL. Also, the concentration at 480 min in “in vivo” is 0.0154 µg/mL.
In “in vivo”, `O=C(/C=C/c1ccc(O)cc1)CC(=O)/C=C/c1ccc(O)cc1` [BDMO, bisdesmethoxycurcumin] registered a concentration at 10 min of 0.0657 µg/mL, a concentration at 20 min of 0.115 µg/mL, a concentration at 30 min of 0.0514 µg/mL and a concentration at 45 min of 0.0669 µg/mL. In “in vivo”, this compound yielded a concentration at 60 min of 0.0373 µg/mL, a concentration at 90 min of 0.0111 µg/mL, a concentration at 120 min of 0.0154 µg/mL and a concentration at 240 min of 0.0345 µg/mL. This compound also gave a concentration at 480 min in the data set “in vivo” of 0.0109 µg/mL.
As for `COc1cc(CCC(=O)CC(=O)CCc2ccc(O)c(OC)c2)ccc1O` [THC, tetrahydrocurcumin], in the data set “in vivo” (mouse), the “AUC as % curcumin (relative percentage)” value was found to be 7.9%. In addition, in the data set “in vivo” (mouse), the area under the curve (AUC) worked out at 38.29 µM·min. Further, the plasma level in “in vivo” (setting [2]) was 0.002239 µg/mL; in the data set “in vivo” (same dosing, 10 min), 0.1126977 µg/mL; in the data set “in vivo” (same dosing, 20 min), 0.2382446 µg/mL; in the data set “in vivo” (same dosing, 30 min), 0.2190996 µg/mL; in “in vivo” (same dosing, 45 min), 0.0625 µg/mL; in the data set “in vivo” (same dosing, 60 min) it was 0.03923 µg/mL. Also, the plasma level in “in vivo” (same dosing, 90 min) amounted to 0.006038 µg/mL; in “in vivo” (same dosing, 120 min) it was 0.008631 µg/mL; in “in vivo” (same dosing, 240 min), 0.008173 µg/mL; in the data set “in vivo” (same dosing, 480 min), 0.004672 µg/mL.
Turning to `COc1cc(/C=C/C(=O)CC(=O)/C=C/c2ccc(O[C@@H]3O[C@H](C(=O)O)[C@@H](O)[C@H](O)[C@H]3O)c(OC)c2)ccc1O` [GLU, curcumin O-monoglucuronide], the “AUC as % curcumin (relative percentage)” value in the data set “in vivo” (mouse) was determined as 382.0%. For the same compound, the exposure (AUC) in the data set “in vivo” (mouse) amounted to 1863.2 µM·min. Besides, the plasma level in “in vivo” (setting [2]) stood at 0.0242129 µg/mL; in “in vivo” (same dosing, 10 min), 3.083366 µg/mL; in “in vivo” (same dosing, 20 min) it was 4.42871 µg/mL; in “in vivo” (same dosing, 30 min), 5.469386 µg/mL; in the data set “in vivo” (same dosing, 45 min), 2.539161 µg/mL; in the data set “in vivo” (same dosing, 60 min) it was 2.057704 µg/mL. For the same compound, the plasma level turned out to be 1.336072 µg/mL in the data set “in vivo” (same dosing, 90 min); 1.07025 µg/mL in the data set “in vivo” (same dosing, 120 min); 0.7165084 µg/mL in the data set “in vivo” (same dosing, 480 min).
curcumin O-sulfate: the “AUC as % curcumin (relative percentage)” value in the data set “in vivo” (mouse) came out at 3.3%. Also, in the data set “in vivo” (mouse), the area under the curve (AUC) worked out at 16.2 µM·min. The plasma level in “in vivo” (setting [2]) worked out at 0 µg/mL; in “in vivo” (same dosing, 10 min) it was 0.02944 µg/mL; in the data set “in vivo” (same dosing, 20 min), 0.05483 µg/mL; in “in vivo” (same dosing, 30 min), 0.04306 µg/mL; in “in vivo” (same dosing, 45 min), 0.02751 µg/mL; in “in vivo” (same dosing, 60 min), 0.01875 µg/mL. Also, the plasma level in the data set “in vivo” (same dosing, 90 min) was determined as 0.008637 µg/mL; in “in vivo” (same dosing, 120 min), 0.007752 µg/mL; in the data set “in vivo” (same dosing, 240 min), 0.009949 µg/mL; in the data set “in vivo” (same dosing, 480 min), 0.00405 µg/mL.
